Tests used:
[1] = biological target: T1, α1A receptor (Rattus norvegicus, UniProt P43140); assay: Radioligand binding with [3H]prazosine, affinity for α1A receptor subtype; details: membranes from rat brain cortex, IC50 corrected according to Cheng and Prusoff; for Ki: read-out: Receptor affinity α1A, expressed in pKI values (converted)
T1 construct: membranes from rat brain cortex; from tissue; host or cells: rat brain cortex membranes
T1 sequence (P43140 1-466): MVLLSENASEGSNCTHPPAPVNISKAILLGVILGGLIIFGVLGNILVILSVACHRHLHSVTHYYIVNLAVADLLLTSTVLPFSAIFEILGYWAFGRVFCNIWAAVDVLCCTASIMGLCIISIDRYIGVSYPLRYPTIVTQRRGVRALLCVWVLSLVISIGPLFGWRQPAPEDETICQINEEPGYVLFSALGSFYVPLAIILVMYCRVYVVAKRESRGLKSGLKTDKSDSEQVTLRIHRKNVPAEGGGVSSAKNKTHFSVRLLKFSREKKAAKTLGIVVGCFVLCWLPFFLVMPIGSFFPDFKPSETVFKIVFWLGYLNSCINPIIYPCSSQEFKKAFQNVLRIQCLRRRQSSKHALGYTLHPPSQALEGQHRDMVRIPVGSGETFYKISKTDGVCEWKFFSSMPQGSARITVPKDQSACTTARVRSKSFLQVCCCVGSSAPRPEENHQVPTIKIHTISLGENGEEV
Protocol: (§1) The affinity of substances for α1 receptor subtypes was determined in radioligand binding studies using [^3 H]prazosine as a radioligand. 50-200 μg of membranes from rat brain cortex were incubated in a total volume of 0.5-1 ml with [^3 H]prazosine (0.2 to 0.5 nmol/l) in the presence of rising concentrations of substances. The incubation buffer used was 50 mmol/l tris/HCl pH 7.5, 1 mmol/l EDTA, 0.1 mmol/l PMSF. The nonspecific binding was determined in separate batches in the presence of 10 μmol/l of phentolamine or 1 μmol/l of prazosine. After 1 h at 37° C., the bound radioactivity was separated from the free radioactivity by rapid filtration of the incubation batch at 0° C. through glass fiber filters. The filters were washed twice with 3.5 ml each of cold filtration buffer (50 mmol/l tris/HCl pH 7.4, 10 mmol/l MgCl2, 10% polyethylene glycol 6000). The filter-bound radioactivity was determined by liquid scintillation counting. Substances with subtype selectivity for the α1 receptor subtypes were tested again in the presence of 3 nmol/l of WB 4101. WB4101 blocks the binding of [^3 H]prazosine to the α1A receptor subtype and the remaining binding corresponds to that to the α1B receptor.
(§2) For each substance, dose-response curves were plotted by means of nonlinear regression using the Inplot program (GraphPad, Sorento, Calif., USA). IC50 values were corrected by the concentration of the radioligand employed according to the formula of Cheng and Prusoff. The resulting KI values (see following table) represent the affinity of the respective substance for the tested receptor. The compounds according to the invention investigated according to the model illustrated in greater detail above have been provided in the following table with numbers which correspond to the numbers of these compounds in the examples.

[2] = biological target: T2, 5-HT1A receptor (Sus scrofa, UniProt A0A4X1UTF5); assay: Radioligand binding with [3H]8-OH-DPAT, affinity for 5-HT1A receptor; details: membranes from pig brain cortex, IC50 corrected according to Cheng and Prusoff; for Ki: read-out: Receptor affinity 5-HT1A, expressed in pKI values (converted)
T2 construct: membranes from pig brain cortex; from tissue; host or cells: pig brain cortex membranes
T2 sequence (A0A4X1UTF5 1-422): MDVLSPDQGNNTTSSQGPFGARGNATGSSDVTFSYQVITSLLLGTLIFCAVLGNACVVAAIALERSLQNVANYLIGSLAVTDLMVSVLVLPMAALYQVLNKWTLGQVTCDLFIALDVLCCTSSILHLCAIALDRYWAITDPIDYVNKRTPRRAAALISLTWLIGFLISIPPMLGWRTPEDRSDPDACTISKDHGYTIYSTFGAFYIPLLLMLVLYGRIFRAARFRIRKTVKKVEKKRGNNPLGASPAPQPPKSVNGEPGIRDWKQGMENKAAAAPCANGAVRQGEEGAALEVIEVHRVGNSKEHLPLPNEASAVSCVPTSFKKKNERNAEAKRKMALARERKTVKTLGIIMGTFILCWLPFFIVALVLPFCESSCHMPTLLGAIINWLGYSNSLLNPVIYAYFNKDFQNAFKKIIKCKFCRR
Protocol: The affinity of substances for the 5-HT1A receptor was determined in radioligand binding studies using [^3 H]8-OH-DPAT as a radioligand. 50-150 μg of membranes from pig brain cortex were incubated in a total volume of 0.25-0.5 ml with [^3 H]8-OH-DPAT (0.2 to 0.4 nmol/l) in the presence of rising concentrations of substances. The incubation buffer used was 50 mmol/l tris/HCl pH 8.2, 1 mmol/l MnCl2. The nonspecific binding was determined in separate batches in the presence of 10 μmol/l of 5-HT. After 30 min at 23° C., the bound radioactivity was separated from the free radioactivity by rapid filtration of the incubation batch at 0° C. through glass fiber filters. The filters were washed twice with 3.5 ml each of cold filtration buffer (50 mmol/l tris/HCl pH 7.4, 10 mmol/l MgCl2, 10% polyethylene glycol 6000). The filter-bound radioactivity was determined by liquid scintillation counting.
as §2

[3] = biological target: T3, α1B receptor (Rattus norvegicus, UniProt P15823); assay: Radioligand binding with [3H]prazosine (in the presence of WB 4101), affinity for α1B receptor subtype; details: membranes from rat brain cortex, subtype-selective substances tested again in the presence of 3 nmol/l WB 4101, Cheng and Prusoff; for Ki: read-out: Receptor affinity α1B, expressed in pKI values (converted)
T3 construct: membranes from rat brain cortex; from tissue; host or cells: rat brain cortex membranes
T3 sequence (P15823 1-515): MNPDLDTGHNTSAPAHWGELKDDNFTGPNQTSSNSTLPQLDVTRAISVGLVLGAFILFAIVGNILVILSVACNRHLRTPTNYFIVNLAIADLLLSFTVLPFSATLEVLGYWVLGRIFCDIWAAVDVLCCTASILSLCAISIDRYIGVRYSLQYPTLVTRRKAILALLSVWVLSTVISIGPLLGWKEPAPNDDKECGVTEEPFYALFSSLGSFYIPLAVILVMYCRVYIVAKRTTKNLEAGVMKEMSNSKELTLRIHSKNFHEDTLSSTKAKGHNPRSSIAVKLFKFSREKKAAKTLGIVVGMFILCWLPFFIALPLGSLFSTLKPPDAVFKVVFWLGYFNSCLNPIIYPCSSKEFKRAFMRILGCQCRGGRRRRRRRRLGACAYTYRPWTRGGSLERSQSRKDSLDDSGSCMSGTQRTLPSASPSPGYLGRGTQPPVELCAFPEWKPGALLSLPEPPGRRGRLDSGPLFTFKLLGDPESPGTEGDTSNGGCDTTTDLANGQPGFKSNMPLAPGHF
Protocol: as §1, §2

Row | Compound | Ki [1] [nM] | Ki [2] [nM] | Ki [3] [nM] | Receptor affinity α1A, expressed in pKI values [1] | Receptor affinity 5-HT1A, expressed in pKI values [2] | Receptor affinity α1B, expressed in pKI values [3]
1 | COc1cc(Br)c(Br)cc1N1CCN(CCCNc2c(C)c(=O)n(C)c(=O)n2C)CC1 [Compound 1, 1,3,5-Trimethyl-6-[[3-[4-(3,4-dibromo-6-methoxy-phenyl)-1-piperazinyl]propyl]amino]-2,4(1H,3H)-pyrimidinedione] | 5.01 | 1.26 | 5.01 |  |  | 
2 | COc1ccccc1N1CCN(CCCNc2c(Cc3c(NCCCN4CCN(c5ccccc5OC)CC4)n(C)c(=O)n(C)c3=O)c(=O)n(C)c(=O)n2C)CC1 [Compound 2] | 0.398 | 12.6 | 0.398 |  |  | 
3 | CCOc1ccccc1N1CCN(CCCNc2c(CCC#N)c(=O)n(C)c(=O)n2C)CC1 [Compound 3, 5-Cyanoethyl-1,3-dimethyl-6-[[3-[4-(2-ethoxyphenyl)-1-piperazinyl]propyl]amino]-2,4(1H,3H)-pyrimidinedione] | 0.501 | 0.398 | 63.1 |  |  | 
4 | CCOc1cc(F)ccc1N1CCN(CCCNc2c(Cc3c(NCCCN4CCN(c5ccc(F)cc5OCC)CC4)n(C)c(=O)n(C)c3=O)c(=O)n(C)c(=O)n2C)CC1 [Compound 4, Bis[1,3-dimethyl-6-[[3-[4-(2-ethoxy-4-fluorophenyl)-1-piperazinyl]propyl]amino]-2,4(1H,3H)-pyrimidinedione-5,5'-yl]methane] | 1 | 39.8 | 1 |  |  | 
5 | COc1ccccc1N1CCN(CCCNC(=O)c2cc(=O)n(C)c(=O)n2C)CC1 [Compound 5, 1,3-Dimethyl-2,4(1H,3H)-pyrimidinedione-6-carboxylic acid [[3-[4-(2-methoxyphenyl)-1-piperazinyl]propyl]amide]] | 5.01 | 2.51 | 251 |  |  | 
6 | Cc1c(NCCCN2CCN(c3ccccc3OC(F)(F)C(F)F)CC2)n(C)c(=O)n(C)c1=O [Compound 6, 1,3,5-Trimethyl-6-[[3-[4-(2-tetrafluoro-ethoxyphenyl)-1-piperazinyl]-propyl]amino]-2,4(1H,3H)-pyrimidinedione] |  |  |  | 9.4 | 9.7 | 7.5
7 | C=CCc1c(NCCCN2CCN(c3ccc(F)cc3OCC)CC2)n(C)c(=O)n(C)c1=O [Compound 7, 5-Allyl-1,3-dimethyl-6-[[3-[4-(2-ethoxy-4-fluorophenyl)-1-piperazinyl]propyl]amino]-2,4(1H,3H)-pyrimidinedione] | 0.631 | 0.794 | 39.8 |  |  | 
8 | Cn1c(NCCCN2CCN(c3ccccc3OC(F)(F)C(F)F)CC2)c(CCC#N)c(=O)n(C)c1=O [Compound 8] |  |  |  | 9.2 | 10.0 | 7.5
9 | Cc1c(NCCCN2CCN(c3cccc4c3OCC(CO)O4)CC2)n(C)c(=O)n(C)c1=O (stereo not drawn) [Compound 9, 1,3,5-Trimethyl-6-[[3-[4-((2,3-dihydro-2-hydroxymethyl)-1,4-benzodioxin-5-yl)-1-piperazinyl]propyl]amino]-2,4(1H,3H)-pyrimidinedione] | 2 | 0.2 | 1580 |  |  | 
10 | Cn1c(NCCCN2CCN(c3cccc4c3OCC(CO)O4)CC2)c(Cc2c(NCCCN3CCN(c4cccc5c4OCC(CO)O5)CC3)n(C)c(=O)n(C)c2=O)c(=O)n(C)c1=O (stereo not drawn) [Compound 10, Bis[1,3-dimethyl-6-[[3-[4-((2,3-dihydro-2-hydroxymethyl)-1,4-benzodioxin-5-yl)-1-piperazinyl]propyl]amino]-2,4(1H,3H)-pyrimidinedione-5,5'-yl]methane] | 7.94 | 0.501 | 7.94 |  |  | 
11 | C=CCc1c(NCCCN2CCN(c3ccccc3OC(F)(F)C(F)F)CC2)n(C)c(=O)n(C)c1=O [Compound 11, 5-Allyl-1,3-dimethyl-6-[[3-[4-(2-tetrafluoro-ethoxyphenyl)-1-piperazinyl]propyl]amino]-2,4(1H,3H)-pyrimidinedione] |  |  |  | 9.6 | 9.3 | 7.9
12 | CCOC(=O)c1c(NCCCN2CCN(c3ccccc3OC)CC2)n(C)c(=O)n(C)c1=O [Compound 12, 1,3-Dimethyl-5-ethoxycarbonyl-6-[[3-[4-(2-methoxyhenyl)-1-piperazinyl]propyl]amino]-2,4(1H,3H)-pyrimidinedione] | 25.1 | 6.31 | 25.1 |  |  | 
13 | Cc1c(NCCCN2CCN(c3ccccc3O)CC2)n(C)c(=O)n(C)c1=O [Compound 13, 1,3,5-Trimethyl-6-[[3-[4-(2-hydroxyphenyl)-1-piperazinyl]propyl]amino]-2,4(1H,3H)-pyrimidinedione] | 20 | 0.251 | 20 |  |  | 
14 | COc1cc([N+](=O)[O-])ccc1N1CCN(CCCNc2c(C)c(=O)n(C)c(=O)n2C)CC1 [Compound 14, 1,3,5-Trimethyl-6-[[3-[4-(2-methoxy-4-nitrophenyl)-1-piperazinyl]propyl]amino]-2,4(1H,3H)-pyrimidinedione] | 251 | 200 | 251 |  |  | 
15 | CON=Cc1c(NCCCN2CCN(c3ccccc3OC)CC2)n(C)c(=O)n(C)c1=O [Compound 15, 1,3-Dimethyl-5-methoxyiminomethyl-6-[[3-[4-(2-methoxyohenyl)-1-piperazinyl]propyl]amino]-2,4(1H,3H)-pyrimidinedione] | 5.01 | 1.58 | 126 |  |  | 
16 | COc1ccccc1N1CCN(CCCNc2c(C=NO)c(=O)n(C)c(=O)n2C)CC1 [Compound 16, 1,3-Dimethyl-5-hydroxyiminomethyl-6-[[3-[4-(2-methoxphenyl)-1-piperazinyl]propyl]amino]-2,4(1H,3H)-pyrimidinedione] | 2 | 1 | 50.1 |  |  | 
